Source: patent publication US8436014B2, “Solid forms of N-(4-(7-azabicyclo[2.2.1]heptan-7-yl)-2-(trifluorormethyl)phenyl)-4-oxo-5-(trifluoromethyl)-1,4-dihyroquinoline-3-carboxamide” (Vertex Pharmaceutical Incorporated, priority 2008, dated 2013)

Biological target: T1, ΔF508-CFTR (Homo sapiens, UniProt P13569, DEL508-508)
T1 construct: expressed in transfected cells
Assay: Membrane potential optical assay for ΔF508-CFTR potentiation (FLIPR III, voltage sensing dyes)
Type: cell-based
Details: assay not named in the result sentence
Text: Membrane Potential Optical Methods for Assaying ΔF508-CFTR Modulation Properties of Compounds
The assay utilizes fluorescent voltage sensing dyes to measure changes in membrane potential using a fluorescent plate reader (e.g., FLIPR III, Molecular Devices, Inc.) as a readout for increase in functional ΔF508-CFTR in NIH 3T3 cells. The driving force for the response is the creation of a chloride ion gradient in conjunction with channel activation by a single liquid addition step after the cells have previously been treated with compounds and subsequently loaded with a voltage sensing dye.
To identify potentiators of ΔF508-CFTR, a double-addition HTS assay format was developed. This HTS assay utilizes fluorescent voltage sensing dyes to measure changes in membrane potential on the FLIPR III as a measurement for increase in gating (conductance) of ΔF508 CFTR in temperature-corrected ΔF508 CFTR NIH 3T3 cells. The driving force for the response is a Cl− ion gradient in conjunction with channel activation with forskolin in a single liquid addition step using a fluoresecent plate reader such as FLIPR III after the cells have previously been treated with potentiator compounds (or DMSO vehicle control) and subsequently loaded with a redistribution dye.
Solutions • Bath Solution #1: (in mM) NaCl 160, KCl 4.5, CaCl2 2, MgCl2 1, HEPES 10, pH 7.4 with NaOH. […]

T1 sequence (P13569 with tags, fused parts or gaps DEL508-508): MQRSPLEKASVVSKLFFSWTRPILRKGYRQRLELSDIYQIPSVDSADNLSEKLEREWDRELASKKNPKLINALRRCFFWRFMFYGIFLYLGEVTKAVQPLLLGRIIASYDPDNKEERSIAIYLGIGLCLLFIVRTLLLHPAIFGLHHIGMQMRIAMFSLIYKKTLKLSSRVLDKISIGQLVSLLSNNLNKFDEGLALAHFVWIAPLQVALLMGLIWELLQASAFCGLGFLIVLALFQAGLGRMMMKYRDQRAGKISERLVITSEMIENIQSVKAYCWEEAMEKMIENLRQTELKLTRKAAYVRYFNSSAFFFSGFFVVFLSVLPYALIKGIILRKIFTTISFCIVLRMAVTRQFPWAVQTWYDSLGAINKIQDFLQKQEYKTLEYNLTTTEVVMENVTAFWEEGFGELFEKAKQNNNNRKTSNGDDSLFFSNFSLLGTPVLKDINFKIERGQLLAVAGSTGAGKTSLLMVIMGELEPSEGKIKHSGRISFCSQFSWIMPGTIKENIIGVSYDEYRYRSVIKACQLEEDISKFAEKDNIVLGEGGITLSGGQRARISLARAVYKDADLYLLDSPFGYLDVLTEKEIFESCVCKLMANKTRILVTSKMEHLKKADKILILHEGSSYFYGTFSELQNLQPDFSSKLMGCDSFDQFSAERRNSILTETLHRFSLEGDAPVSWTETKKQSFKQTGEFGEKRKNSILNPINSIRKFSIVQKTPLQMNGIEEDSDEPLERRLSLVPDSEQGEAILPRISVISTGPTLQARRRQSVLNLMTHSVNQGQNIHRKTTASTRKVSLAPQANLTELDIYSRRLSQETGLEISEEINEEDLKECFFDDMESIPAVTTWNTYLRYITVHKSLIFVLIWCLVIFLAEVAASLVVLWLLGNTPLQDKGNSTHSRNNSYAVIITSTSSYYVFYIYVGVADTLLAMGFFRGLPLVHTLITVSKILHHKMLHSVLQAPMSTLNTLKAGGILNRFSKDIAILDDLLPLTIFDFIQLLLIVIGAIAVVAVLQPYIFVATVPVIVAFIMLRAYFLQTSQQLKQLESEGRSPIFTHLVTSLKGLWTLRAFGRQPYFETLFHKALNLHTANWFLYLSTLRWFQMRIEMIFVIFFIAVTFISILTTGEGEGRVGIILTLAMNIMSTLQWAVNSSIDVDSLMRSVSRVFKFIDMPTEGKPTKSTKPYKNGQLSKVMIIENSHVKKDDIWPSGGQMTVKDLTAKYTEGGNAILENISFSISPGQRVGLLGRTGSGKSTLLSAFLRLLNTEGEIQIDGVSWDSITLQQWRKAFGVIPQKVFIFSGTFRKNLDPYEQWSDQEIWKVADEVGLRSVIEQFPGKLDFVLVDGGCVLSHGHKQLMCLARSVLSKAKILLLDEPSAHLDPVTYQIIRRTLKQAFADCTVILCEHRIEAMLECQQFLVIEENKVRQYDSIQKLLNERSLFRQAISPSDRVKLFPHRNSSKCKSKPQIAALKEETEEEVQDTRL

O=C(Nc1ccc(N2C3CCC2CC3)cc1C(F)(F)F)c1c[nH]c2cccc(C(F)(F)F)c2c1=O [Compound 1 Form A, N-(4-(7-azabicyclo[2.2.1]heptan-7-yl)-2-(trifluoromethyl)phenyl)-4-oxo-5-(trifluoromethyl)-1,4-dihydroquinoline-3-carboxamide]
EC50: < 2000 nM
